# According to publication PMC8001898, “New Triterpene Glycosides from the Far Eastern Starfish Solaster pacificus and Their Biological Activity” (Biomolecules, 2021):
# Like-named read-outs stand apart in the source and are kept apart here.
# Columns and labels:
# [1] = system: HT-29, RPMI-7951, and MDA-MB-231 cells; experiment: Soft agar colony formation assay, statements on all types of cancer cells; format: cell-based, human; settings: nontoxic concentrations
# Description: (§1) Compounds 1–6 were dissolved in sterile DMSO to prepare stock concentrations of 20 mM. Cells were treated with serially diluted compounds 1–6 (culture medium used as diluent) to give the intended final concentrations. The vehicle control is the cells treated with equivalent volume of DMSO (less than 0.5%) for all presented experiments.
# (§2) Human cancer cells (2.4 × 10^4/mL) were seeded into 6-well plate and treated with compounds 1–6 (0.1, 0.5, and 1 µM) or cisplatin (3 µM) in 1 mL of 0.3% BME agar containing 10% FBS, 2 mM L-glutamine, and 25 µg/mL gentamicin. The cultures were maintained in a 37 °C, 5% CO2 incubator for 14 days, and the cell colonies were scored using a Motic microscope AE 20 (XiangAn, Xiamen, China) and ImageJ software bundled with 64-bit Java 1.8.0_112 (NIH, Bethesda, MD, USA).
# Figure 3 Effect of compounds 1–6 on colony formation of human colorectal carcinoma HT-29, melanoma RPMI-7951, and breast cancer MDA-MB-231 cell lines. HT-29, RPMI-7951, and MDA-MB-231 cells (2.4 × 10^4 /mL) treated with/without investigated 1–6 (0.1, 0.5, and 1 µM) and subjected into a soft agar. The culture was maintained at 37 °C in a 5% CO2 atmosphere for 2 weeks. The colonies were counted under a microscope with the aid of the ImageJ software program (n = 6 for control and each compound, n—quantity of photos). […]
# [2] = system: HEK 293, HT-29, RPMI-7951, and MDA-MB-231 cells; experiment: MTS cell viability assay, statements on all tested cell lines; format: cell-based, human; settings: individual compounds, 24 h, concentrations range up to 40 µM
# Description: Cells (1.0 × 10^4) were seeded in 96-well plates (Jet Biofil, Guangzhou, China) and cultured in 200 µL of complete culture medium for 24 h at 37 °C in 5% CO2 incubator. […] Cells were also treated by cisplatin (positive control) at 1, 5, 10, 50, 100 µM for 24 and 48 h. Subsequently, the cells were incubated with 15 µL MTS reagent for 3 h, and the absorbance of each well was measured at 490/630 nm using Power Wave XS microplate reader (BioTek, Wynusky, VT, USA).
# [3] = system: breast cancer MDA-MB-231 cells; experiment: Soft agar colony formation assay, MDA-MB-231 cells; format: cell-based, human; settings: for decrease of number of colonies of MDA-MB-231: 1 µM, 14 days; for decrease of number of colonies of MDA-MB-231 / colony growth of MDA-MB-231 cells (in words): soft agar; for colony growth of MDA-MB-231 cells (in words): concentrations of 0.5 µM and 1 µM; for colony formation of MDA-MB-231 cells (in words): nontoxic concentration of 0.5 µM
# Description: as §1, §2
# (§3) Figure 3 Effect of compounds 1–6 on colony formation of human colorectal carcinoma HT-29, melanoma RPMI-7951, and breast cancer MDA-MB-231 cell lines. HT-29, RPMI-7951, and MDA-MB-231 cells (2.4 × 10^4 /mL) treated with/without investigated 1–6 (0.1, 0.5, and 1 µM) and subjected into a soft agar. The culture was maintained at 37 °C in a 5% CO2 atmosphere for 2 weeks. The colonies were counted under a microscope with the aid of the ImageJ software program (n = 6 for control and each compound, n—quantity of photos). The asterisks (* p < 0.05, ** p < 0.01, *** p < 0.001) indicate a significant decrease in colony formation in cells treated with compounds compared with the nontreated cells (control).
# [4] = system: breast cancer MDA-MB-231 cells; experiment: MTS cell viability assay, MDA-MB-231 cells; format: cell-based, human
# Description: (§4) Human embryonic kidney HEK 293 cells (ATCC® no. CRL-1573™), colorectal carcinoma HT-29 cells (ATCC® no. HTB-38™), melanoma RPMI-7951 cells (ATCC® no. HTB-66), and breast cancer MDA-MB-231 cells (ATCC® HTB-26™) were obtained from the American Type Culture Collection (Manassas, VA, USA). […] The cell cultures were maintained at 37 °C in humidified atmosphere containing 5% CO2. […] After three passages the cells were used for the experiments. […] Then samples were vacuum evaporated and dissolved in DMSO to their stock concentrations of 20 mM. Cells (1.0 × 10^4) were seeded in 96-well plates (Jet Biofil, Guangzhou, China) and cultured in 200 µL of complete culture medium for 24 h at 37 °C in 5% CO2 incubator.
# [5] = system: colorectal carcinoma HT-29 cells; experiment: Soft agar colony formation assay, HT-29 cells; format: cell-based, human; settings: for decrease of number of colonies of HT-29: 1 µM, 14 days; for decrease of number of colonies of HT-29 / colony growth of HT-29 cells (in words): soft agar; for colony growth of HT-29 cells (in words): concentrations of 0.5 µM and 1 µM; for colony formation of HT-29 cells (in words): nontoxic concentration of 0.5 µM
# Description: as §1, §2, §3
# melanoma RPMI-7951 cells [6] = experiment: MTS cell viability assay, RPMI-7951 cells; format: cell-based, human
# Description: as §4
# [7] = system: human embryonic kidney HEK 293 cells; experiment: MTS cell viability assay, HEK 293 cells; format: cell-based
# Description: as §4
# melanoma RPMI-7951 cells [8] = experiment: Soft agar colony formation assay, RPMI-7951 cells; format: cell-based, human; settings: for decrease of number of colonies of RPMI-7951: 1 µM, 14 days; for decrease of number of colonies of RPMI-7951 / colony growth of RPMI-7951 cells (in words): soft agar; for colony growth of RPMI-7951 cells (in words): concentrations of 0.5 µM and 1 µM; for colony formation of RPMI-7951 cells (in words): nontoxic concentration of 0.5 µM
# Description: as §1, §2, §3
# [9] = system: colorectal carcinoma HT-29 cells; experiment: MTS cell viability assay, HT-29 cells; format: cell-based, human
# Description: as §4
# [10] = Homo sapiens, MDA-MB-231, 24 h, individual compounds, 24 h, MTS, read-out: Inhibiting Concentration, (IC50), MDA-MB-231, a
# [11] = Homo sapiens, RPMI-7951, 24 h, individual compounds, 24 h, MTS, read-out: Inhibiting Concentration, (IC50), RPMI-7951, a
# [12] = Homo sapiens, HEK293, 24 h, individual compounds, 24 h, MTS, read-out: Inhibiting Concentration, (IC50), HEK 293, a
# [13] = Homo sapiens, HT-29, 24 h, individual compounds, 24 h, MTS, read-out: Inhibiting Concentration, (IC50), HT-29, a
# [14] = Homo sapiens, MDA-MB-231, 24 h, read-out: Inhibiting Concentration, (IC50), MDA-MB-231, a
# [15] = Homo sapiens, RPMI-7951, 24 h, read-out: Inhibiting Concentration, (IC50), RPMI-7951, a
# [16] = Homo sapiens, HEK293, 24 h, read-out: Inhibiting Concentration, (IC50), HEK 293, a
# [17] = Homo sapiens, HT-29, 24 h, read-out: Inhibiting Concentration, (IC50), HT-29, a
Structure (SMILES),decrease of number of colonies of MDA-MB-231 [3] [%],"IC50 [4, 10] [µM]",decrease of number of colonies of HT-29 [5] [%],IC50 (melanoma RPMI-7951 cells [6]; [11]) [µM],"IC50 [7, 12] [µM]",decrease of number of colonies of RPMI-7951 (melanoma RPMI-7951 cells [8]) [%],"IC50 [9, 13] [µM]",colony growth of MDA-MB-231 cells (in words) [3],colony formation of MDA-MB-231 cells (in words) [3],colony growth of HT-29 cells (in words) [5],colony formation of HT-29 cells (in words) [5],colony growth of RPMI-7951 cells (in words) (melanoma RPMI-7951 cells [8]),colony formation of RPMI-7951 cells (in words) (melanoma RPMI-7951 cells [8]),"IC50 [4, 14] [µM]",IC50 (melanoma RPMI-7951 cells [6]; [15]) [µM],"IC50 [7, 16] [µM]","IC50 [9, 17] [µM]",other results
"CO[C@@H]1[C@@H](O)[C@H](O[C@@H]2[C@@H](O)[C@H](O[C@H]3[C@H](O)[C@@H](O[C@@H]4OC[C@@H](O)[C@H](O)[C@H]4O)[C@H](O[C@H]4[C@H](O[C@H]5CC[C@]6(C)[C@@H]7CCC89C(=O)O[C@@](C)(/C=C/C=O)[C@H]8[C@@H](OC(C)=O)C[C@@]9(C)C7=CC[C@H]6C5(C)C)OC[C@@H](O)[C@@H]4O)O[C@@H]3C)O[C@H](CO)[C@H]2O)OC[C@H]1O (stereo partly drawn) [Compound 1, 3β-O-{3-O-methyl-β-D-xylopyranosyl-(1→3)-β-D-glucopyranosyl-(1→4)-[β-D-xylopyranosyl-(1→2)]-β-D-quinovopyranosyl-(1→2)-β-D-xylopyranosyl}-16β-acetoxy-25,26,27-trinorholosta-7,22-dien-24-al]",28,> 40,21,> 40,> 40,27,> 40,,,,,,,,,,,colony formation of all types of cancer cells (in words) [1]: slightly inhibited; cytotoxic activity against the tested cell lines (in words) [2]: nontoxic
"C=C(C)[C@H]1[C@@H]2C[C@@]3(C)C4=CC[C@H]5C(C)(C)[C@@H](O[C@@H]6OC[C@@H](O)[C@H](O)[C@H]6O[C@@H]6O[C@H](C)[C@@H](O[C@@H]7O[C@H](CO)[C@@H](O)[C@H](O[C@@H]8OC[C@@H](O)[C@H](OC)[C@H]8O)[C@H]7O)[C@H](O)[C@H]6O[C@@H]6OC[C@@H](O)[C@H](O)[C@H]6O)CC[C@]5(C)[C@@H]4CCC13C(=O)O2 [Compound 2, 3β-O-{3-O-methyl-β-D-xylopyranosyl-(1→3)-β-D-glucopyranosyl-(1→4)-[β-D-xylopyranosyl-(1→2)]-β-D-quinovopyranosyl-(1→2)-β-D-xylopyranosyl}-23,24,25,26,27-pentanorlanosta-7,20(22)-diene-18(16)-lactone]",25,> 20,22,> 20,> 20,26,> 20,,,,,,,,,,,"IC50 ([4]; individual compounds, 24 h, MTS, read-out: Inhibiting Concentration, (IC50), MDA-MB-231, a): 21.5 ± 0.5 µM; IC50 (melanoma RPMI-7951 cells [6]; individual compounds, 24 h, MTS, read-out: Inhibiting Concentration, (IC50), RPMI-7951, a): 20.4 ± 1.6 µM; IC50 ([7]; individual compounds, 24 h, MTS, read-out: Inhibiting Concentration, (IC50), HEK 293, a): 28.6 ± 2.1 µM; IC50 ([9]; individual compounds, 24 h, MTS, read-out: Inhibiting Concentration, (IC50), HT-29, a): 26.2 ± 2.5 µM"
"CO[C@@H]1[C@@H](O)[C@H](O[C@@H]2[C@@H](O)[C@H](O[C@H]3[C@H](O)[C@@H](O[C@@H]4OC[C@@H](O)[C@H](O)[C@H]4O)[C@H](O[C@H]4[C@H](O[C@H]5CC[C@]6(C)[C@@H]7CCC89C(=O)O[C@@](C)(CCC=C(C)C)[C@H]8[C@@H](OC(C)=O)C[C@@]9(C)C7=CC[C@H]6C5(C)C)OC[C@@H](O)[C@@H]4O)O[C@@H]3C)O[C@H](CO)[C@H]2O)OC[C@H]1O (stereo partly drawn) [Compound 3, 3β-O-{3-O-methyl-β-D-xylopyranosyl-(1→3)-β-D-glucopyranosyl-(1→4)-[β-D-xylopyranosyl-(1→2)]-β-D-quinovopyranosyl-(1→2)-β-D-xylopyranosyl}-16β-acetoxyholosta-7,24-diene]",,6.4 ± 0.4,,23.7 ± 0.4,6.7 ± 0.2,,6.2 ± 0.3,almost completely suppressed,almost completely suppressed,almost completely suppressed,almost completely suppressed,almost completely suppressed,almost completely suppressed,,,,,
"CO[C@@H]1[C@@H](O)[C@H](O[C@@H]2[C@@H](O)[C@H](O[C@H]3[C@H](O)[C@@H](O[C@@H]4OC[C@@H](O)[C@H](O)[C@H]4O)[C@H](O[C@H]4[C@H](O[C@H]5CC[C@]6(C)[C@@H]7CCC89C(=O)O[C@@](C)(/C=C\C=C(C)C)[C@H]8[C@@H](OC(C)=O)C[C@@]9(C)C7=CC[C@H]6C5(C)C)OC[C@@H](O)[C@@H]4O)O[C@@H]3C)O[C@H](CO)[C@H]2O)OC[C@H]1O (stereo partly shown) [Compound 4, cucumarioside C1]",,,,,,,,almost completely suppressed,almost completely suppressed,almost completely suppressed,almost completely suppressed,almost completely suppressed,almost completely suppressed,3.6 ± 0.2,5.8 ± 1.2,5.5 ± 0.3,5.3 ± 0.2,
"CO[C@@H]1[C@@H](O)[C@H](O[C@@H]2[C@@H](O)[C@H](O[C@H]3[C@H](O)[C@@H](O[C@@H]4OC[C@@H](O)[C@H](O)[C@H]4O)[C@H](O[C@H]4[C@H](O[C@H]5CC[C@]6(C)[C@@H]7CCC89C(=O)O[C@@](C)(/C=C/C=C(C)C)[C@H]8[C@@H](OC(C)=O)C[C@@]9(C)C7=CC[C@H]6C5(C)C)OC[C@@H](O)[C@@H]4O)O[C@@H]3C)O[C@H](CO)[C@H]2O)OC[C@H]1O (stereo partly shown) [Compound 5, cucumarioside C2]",,,,,,,,almost completely suppressed,almost completely suppressed,almost completely suppressed,almost completely suppressed,almost completely suppressed,almost completely suppressed,4.4 ± 0.09,5.9 ± 0.9,7.9 ± 0.9,5.5 ± 0.6,
"C=C(C)[C@H]1[C@@H]2C[C@@]3(C)C4=CC[C@H]5C(C)(C)[C@@H](O[C@@H]6OC[C@@H](O)[C@H](O)[C@H]6O[C@@H]6O[C@H](C)[C@@H](O[C@@H]7O[C@H](CO)[C@@H](O)[C@H](O[C@@H]8OC[C@@H](O)[C@H](OC)[C@H]8O)[C@H]7O)[C@H](O)[C@H]6O)CC[C@]5(C)[C@@H]4CCC13C(=O)O2 [Compound 6, cucumarioside A10]",40,,28,,,45,,,,,,,,5.5 ± 0.1,5.8 ± 2.6,6.3 ± 0.6,7.8 ± 0.7,
"N.N.[Cl][Pt][Cl] [cisplatin, reference compound]",,,,,,,,,,,,,,,,,,"IC50 ([4]; after 48 h of treatment (data not shown), read-out: IC50 against MDA-MB-231 cells): 7.8 µM; IC50 (melanoma RPMI-7951 cells [6]; after 48 h of treatment (data not shown), read-out: IC50 against RPMI-7951 cells): 48.4 µM; IC50 ([7]; after 48 h of treatment (data not shown), read-out: IC50 against HEK 293 cells): 64.6 µM; IC50 ([9]; after 48 h of treatment (data not shown), read-out: IC50 against HT-29 cells): 95.4 µM"
